Data from a melting point compilation (Tetko et al.; mined from patent text by program, amines drawn as free bases though some values may be those of a salt).

First: O=C(O)CCC(=O)c1ccc(OCCCCN2C(=O)c3ccccc3C2=O)cc1
Second: Cc1c(CC(=O)N[C@@H](CO)C(=O)O)cc(-c2ccc(S(C)(=O)=O)cc2)n1-c1ccccc1
The melting point of the first is higher: 133 to 134 °C for the first, 80 to 83 °C for the second.

First: COc1ccc2c(c1)C13CCN(C#N)C(C2)C1C(C)CC(=O)C3 (centres undefined)
Second: CC12CCC3c4ccc(O)cc4CC(Sc4ccc(Br)cc4)C3C1CCC2O (centres undefined)
The melting point of the first is higher: 202 to 205 °C for the first, 165 to 166 °C for the second.

First: O=C(O)Cc1ccc2c3ccccc3n(Cc3ccccc3)c2c1
Second: c1ccc(P(c2ccccc2)c2c3ccccc3cc3ccccc23)cc1
The melting point of the first is lower: 149 to 150 °C for the first, 204 °C for the second.

Compared with `CC(C)(C)Oc1ccc(CCC(=O)NCCC(=O)O)cc1`, `CNC(=O)[C@H](CCCCNC(=O)OCc1ccccc1)NC(=O)OC(C)(C)C` is higher in melting point: 70 to 72 °C for the first, 100 to 102 °C for the second.

First: C=CCSc1nc(O)nn1CC
Second: O=[N+]([O-])c1cnn(CC(O)CCl)n1 (centres undefined)
The melting point of the first is higher: 74 to 76 °C for the first, 38 to 38.5 °C for the second.

First: O=C(Oc1ccccc1C(=O)Nc1cc(Cl)c(OC(=O)c2ccccc2)c(Cl)c1)c1ccccc1
Second: CNC(=O)N(OC(=O)Oc1ccccc1)c1ccc(Cl)c(Cl)c1
The melting point of the first is higher: 157 to 160 °C for the first, 93 °C for the second.

Compared with `CNc1c(F)c(C)c2c(=O)c(C(=O)O)cn(-c3cc(N)c(F)cc3F)c2c1C`, `O=C1C2=C(CCCC2)C(O)N1c1ccc(Cl)cc1F` (centres undefined) is lower in melting point: 247 to 253 °C for the first, 178 to 179 °C for the second.

Compared with `O=C(CCCCCCCCC(=O)OCCO)OCCO`, `CCCOC(=O)C=Nc1cc(Cl)ccc1C(=O)O` is higher in melting point: 47 °C for the first, 155 °C for the second.

First: COc1cc2cc3ncc(C#N)c(Nc4ccc(F)c(Cl)c4)c3cc2cc1OCCN1CCOCC1
Second: CCc1ncnc2ccc(CCc3cc(OC)ccc3OC)cc12
The melting point of the first is higher: 205 to 210 °C for the first, 74 °C for the second.

Compared with `COc1ccc(S(=O)(=O)N(CC(N)=O)c2ccc(N(C)C)cc2Cc2ccccc2Cl)cc1OC`, `COc1cc(OC)c(-c2cc3ccccc3[nH]2)cc1C=CC(=O)c1ccc(S(=O)(=O)NCCCn2ccnc2)cc1` is higher in melting point: 130 °C for the first, 197 to 200 °C for the second.

First: CCCCc1nn(-c2ccccc2C(F)(F)F)c(=O)n1Cc1ccc(-c2ccccc2S(=O)(=O)NC(=O)C(F)(F)F)cc1
Second: Cc1cc(SCc2ccnc3sc(-c4ccc(C(F)(F)F)cc4)nc23)ccc1OCC(=O)O
The melting point of the first is higher: 125 to 127 °C for the first, 82 to 85 °C for the second.

First: Cc1cccc(Nc2ncnc3ccc(-n4cnc5ccccc54)cc23)c1
Second: Cc1sc(-c2ccccc2)nc1COc1ccc(CO)cn1
The melting point of the first is higher: 245 to 246 °C for the first, 70 to 71 °C for the second.

First: CN(C)Cc1ccc(C=CC(=O)N2CCc3c([nH]c4ccccc34)C2c2ccc3c(c2)CCO3)cn1 (centres undefined)
Second: C=CCN(c1ccccc1CC(=O)N(C)C)c1c(Cl)cccc1Cl
The melting point of the first is higher: 163 °C for the first, 110 to 114 °C for the second.

First: Cc1oncc1C(=O)N1CCSCC1
Second: CC(=O)Nc1n[nH]c2cc(Cl)ccc12
The melting point of the first is lower: 64.5 to 65 °C for the first, 240 °C for the second.

Compared with `CCCN(CCC)CCOc1ccc(NC(=O)c2c(OC)cccc2OC)cc1`, `CC(C)(C)N(NC(=O)c1ccccn1)C(=O)c1ccc(Cl)c(Cl)c1` is higher in melting point: 116 to 120 °C for the first, 175 to 178 °C for the second.

First: O=C1Nc2cc(C(F)(F)F)ccc2C1(O)c1cc(Cl)ccc1O (centres undefined)
Second: Cc1csc(-c2nc(=O)c3ccccc3s2)n1
The melting point of the first is lower: 198 to 200 °C for the first, 210 to 211 °C for the second.

Compared with `CC(=O)OCC(=O)Nc1cccc2c1C(=O)N(C1CCC(=O)NC1=O)C2=O` (centres undefined), `CCCS(=O)(=O)Oc1c(C(=O)c2nn(C)c(=O)n(-c3ccccc3)c2=O)cnn1C(C)C` is lower in melting point: 234 to 236 °C for the first, 51 to 53 °C for the second.

First: O=Cc1coc2cc(OC(=O)OCC(Cl)(Cl)Cl)c(OC(=O)OCC(Cl)(Cl)Cl)cc2c1=O
Second: O=COCc1c(Cl)ccc2cc(Cl)cnc12
The melting point of the first is higher: 153 to 155 °C for the first, 146 °C for the second.

Compared with `CSc1ccc(C2=C(c3ccc(F)cc3)CCC2)cc1`, `C=Cc1cn(-c2ccccn2)c2c1C(=O)CC(C)(C)C2` is higher in melting point: 46 to 47 °C for the first, 150 to 154 °C for the second.

For `CC(=O)SCC(=O)C1CCC2C3CCC4CC(O)C(N5CCOC(C)(C)C5)CC4(C)C3C(=O)CC12C` (centres undefined), the melting point was 181 to 182 °C.
